From ChEMBL document CHEMBL4831514, “Novel betulin dicarboxylic acid ester derivatives as potent antiviral agents: Design, synthesis, biological evaluation, structure-activity relationship and in-silico study” (Eur J Med Chem, 2021)
The source made the active and inactive calls. The calls are words filed in the database; no cut-off is given here.

Columns and labels:
Human alphaherpesvirus 1 [1] = test: Antiviral activity against Human herpesvirus 1 MacIntyre infected in A549 cells assessed as reduction in virus titer preincubated for 24 hrs followed by viral infection and measured after 72 hrs by microscopic analysis; type: functional, organism-based
Human adenovirus 5 [2] = test: Antiviral activity against Human adenovirus 5 Adenoid 75 infected in A549 cells assessed as reduction in virus titer preincubated for 24 hrs followed by viral infection and measured after 72 hrs by microscopic analysis; type: functional, organism-based
[3] = test system: Vesicular stomatitis virus; test: Antiviral activity against Vesicular stomatitis virus Indiana infected in A549 cells assessed as reduction in virus titer preincubated for 24 hrs followed by viral infection and measured after 72 hrs by microscopic analysis; type: functional, organism-based
MDCK = test: Cytotoxicity against MDCK cells assessed as reduction in cell viability incubated for 72 hrs by MTT assay; type: cell-based, Canis lupus familiaris; conditions: dog, mdck, 72 h
Enterovirus E = test: Antiviral activity against Enterovirus E LCR-4 infected in A549 cells assessed as inhibition of viral adsorption at early stage of replication treated for 1 hr during viral infection followed by replacement with fresh medium and measured after 72 hrs by MTT assay; type: functional, organism-based
A549 = test: Cytotoxicity against human A549 cells assessed as reduction in cell viability incubated for 48 hrs by MTT assay; type: cell-based; conditions: a549, 48 h
Human alphaherpesvirus 1 [4] = test: Antiviral activity against Human herpesvirus-1 MacIntyre infected in A549 cells assessed as inhibition of viral adsorption at early stage of replication treated for 1 hr during viral infection followed by replacement with fresh medium and measured after 48 hrs by MTT assay; type: functional, organism-based
Human adenovirus 5 [5] = test: Antiviral activity against Human adenovirus 5 Adenoid 75 infected in A549 cells assessed as inhibition of viral adsorption at early stage of replication treated for 1 hr during viral infection followed by replacement with fresh medium and measured after 72 hrs by MTT assay; type: functional, organism-based

C#CC1(NC(=O)c2cccc(C(=O)OC[C@]34CC[C@@H](C(=C)C)[C@@H]3[C@H]3CC[C@@H]5[C@@]6(C)CC[C@H](O)C(C)(C)[C@@H]6CC[C@@]5(C)[C@]3(C)CC4)c2)CCCCC1
Activity (Human alphaherpesvirus 1 [1]): inactive
Activity (Human adenovirus 5 [2]): inactive
Activity [3]: inactive
CC20 (MDCK): 104.82 µM
Activity (Enterovirus E): inactive
CC20 (A549): 104.82 µM
Activity (Human alphaherpesvirus 1 [4]): inactive
Activity (Human adenovirus 5 [5]): inactive

C#CCNC(=O)CCC(=O)OC[C@]12CC[C@@H](C(=C)C)C1[C@H]1CC[C@@H]3[C@@]4(C)CC[C@H](O)C(C)(C)[C@@H]4CC[C@@]3(C)[C@]1(C)CC2 (single isomer, unassigned)
Activity (Human alphaherpesvirus 1 [1]): inactive
Activity (Human adenovirus 5 [2]): inactive
Activity [3]: inactive
CC20 (MDCK): 5.34 µM
Activity (Enterovirus E): inactive
CC20 (A549): 10.78 µM
Activity (Human alphaherpesvirus 1 [4]): inactive
Activity (Human adenovirus 5 [5]): inactive

C#CC1(NC(=O)CCCCCCCCCC(=O)OC[C@]23CC[C@@H](C(=C)C)[C@@H]2[C@H]2CCC4[C@@]5(C)CC[C@H](O)C(C)(C)[C@@H]5CC[C@@]4(C)[C@]2(C)CC3)CCCCC1 (single isomer, unassigned)
Activity (Human alphaherpesvirus 1 [1]): inactive
Activity (Human adenovirus 5 [2]): inactive
Activity [3]: inactive
CC20 (MDCK): 102.46 µM
Activity (Enterovirus E): inactive
CC20 (A549): 102.46 µM
Activity (Human alphaherpesvirus 1 [4]): inactive
Activity (Human adenovirus 5 [5]): inactive

C=C(C)[C@@H]1CCC2(COC(=O)CCCCCCCCCC(=O)N3CCSCC3)CC[C@]3(C)[C@H](CC[C@@H]4[C@@]5(C)CC[C@H](O)C(C)(C)[C@@H]5CC[C@]43C)[C@@H]12 (single isomer, unassigned)
Activity (Human alphaherpesvirus 1 [1]): inactive
Activity (Human adenovirus 5 [2]): inactive
Activity [3]: inactive
CC20 (MDCK): 114.81 µM
Activity (Enterovirus E): inactive
CC20 (A549): 114.81 µM
Activity (Human alphaherpesvirus 1 [4]): inactive
Activity (Human adenovirus 5 [5]): inactive

C#CCNC(=O)CCCC(=O)OC[C@]12CC[C@@H](C(=C)C)[C@@H]1[C@H]1CC[C@@H]3[C@@]4(C)CC[C@H](O)C(C)(C)[C@@H]4CC[C@@]3(C)[C@]1(C)CC2
Activity (Human alphaherpesvirus 1 [1]): inactive
Activity (Human adenovirus 5 [2]): inactive
Activity [3]: inactive
CC20 (MDCK): 1.18 µM
Activity (Enterovirus E): inactive
CC20 (A549): 42.09 µM
Activity (Human alphaherpesvirus 1 [4]): inactive
Activity (Human adenovirus 5 [5]): inactive

C=C(C)[C@@H]1CC[C@]2(COC(=O)CCCCCCCCCC(=O)N3CCCCC3)CC[C@]3(C)[C@H](CC[C@@H]4[C@@]5(C)CC[C@H](O)C(C)(C)[C@@H]5CC[C@]43C)[C@@H]12
Activity (Human alphaherpesvirus 1 [1]): inactive
Activity (Human adenovirus 5 [2]): inactive
Activity [3]: inactive
CC20 (MDCK): 127.84 µM
Activity (Enterovirus E): inactive
CC20 (A549): 127.23 µM
Activity (Human alphaherpesvirus 1 [4]): inactive
Activity (Human adenovirus 5 [5]): inactive

C#CCNC(=O)c1cccc(C(=O)OC[C@]23CC[C@@H](C(=C)C)[C@@H]2[C@H]2CC[C@@H]4C5(C)CC[C@H](O)C(C)(C)[C@@H]5CC[C@@]4(C)[C@]2(C)CC3)c1 (single isomer, unassigned)
Activity (Human alphaherpesvirus 1 [1]): inactive
Activity (Human adenovirus 5 [2]): inactive
Activity [3]: inactive
CC20 (MDCK): 159.24 µM
Activity (Enterovirus E): inactive
CC20 (A549): 159.24 µM
Activity (Human alphaherpesvirus 1 [4]): inactive
Activity (Human adenovirus 5 [5]): inactive

C=C(C)[C@@H]1CC[C@]2(CO)CC[C@]3(C)[C@H](CC[C@@H]4[C@@]5(C)CC[C@H](O)C(C)(C)[C@@H]5CC[C@]43C)[C@@H]12 [BETULIN]
Activity (Human alphaherpesvirus 1 [1]): inactive
Activity (Human adenovirus 5 [2]): inactive
Activity [3]: inactive
CC20 (MDCK): 28.22 µM
Activity (Enterovirus E): inactive
CC20 (A549): 28.22 µM
Activity (Human alphaherpesvirus 1 [4]): inactive
Activity (Human adenovirus 5 [5]): inactive

C=C(C)[C@@H]1CC[C@]2(COC(=O)/C=C(\C)C(=O)O)CC[C@]3(C)[C@H](CC[C@@H]4[C@@]5(C)CC[C@H](O)C(C)(C)[C@@H]5CC[C@]43C)[C@@H]12
Activity (Human alphaherpesvirus 1 [1]): inactive
Activity (Human adenovirus 5 [2]): inactive
Activity [3]: inactive
CC20 (MDCK): 5.63 µM
Activity (Enterovirus E): inactive
CC20 (A549): 11.26 µM
Activity (Human alphaherpesvirus 1 [4]): inactive
Activity (Human adenovirus 5 [5]): inactive

C=C(C)[C@@H]1CC[C@]2(COC(=O)c3cccc(C(=O)N4CCOCC4)c3)CC[C@]3(C)[C@H](CC[C@@H]4[C@@]5(C)CC[C@H](O)C(C)(C)[C@@H]5CC[C@]43C)[C@@H]12
Activity (Human alphaherpesvirus 1 [1]): inactive
Activity (Human adenovirus 5 [2]): inactive
Activity [3]: inactive
CC20 (MDCK): 143.47 µM
Activity (Enterovirus E): inactive
CC20 (A549): 71.74 µM
Activity (Human alphaherpesvirus 1 [4]): inactive
Activity (Human adenovirus 5 [5]): inactive

C#CCNC(=O)CCCCCCCCCC(=O)OC[C@]12CC[C@@H](C(=C)C)[C@@H]1[C@H]1CC[C@@H]3[C@@]4(C)CC[C@H](O)C(C)(C)[C@@H]4CC[C@@]3(C)[C@]1(C)CC2
Activity (Human alphaherpesvirus 1 [1]): inactive
Activity (Human adenovirus 5 [2]): inactive
Activity [3]: inactive
CC20 (MDCK): 153.85 µM
Activity (Enterovirus E): inactive
CC20 (A549): 38.46 µM
Activity (Human alphaherpesvirus 1 [4]): inactive
Activity (Human adenovirus 5 [5]): inactive

C=C(C)[C@@H]1CC[C@]2(COC(=O)CCC(=O)N3CCSCC3)CC[C@]3(C)[C@H](CC[C@@H]4[C@@]5(C)CC[C@H](O)C(C)(C)[C@@H]5CC[C@]43C)[C@@H]12
Activity (Human alphaherpesvirus 1 [1]): inactive
Activity (Human adenovirus 5 [2]): inactive
Activity [3]: inactive
CC20 (MDCK): 124.84 µM
Activity (Enterovirus E): inactive
CC20 (A549): 62.42 µM
Activity (Human alphaherpesvirus 1 [4]): inactive
Activity (Human adenovirus 5 [5]): inactive

C=C(C)[C@@H]1CC[C@]2(COC(=O)/C=C(\C)C(=O)N3CCSCC3)CC[C@]3(C)[C@H](CC[C@@H]4[C@@]5(C)CC[C@H](O)C(C)(C)[C@@H]5CC[C@]43C)[C@@H]12
Activity (Human alphaherpesvirus 1 [1]): inactive
Activity (Human adenovirus 5 [2]): inactive
Activity [3]: inactive
CC20 (MDCK): 61.5 µM
Activity (Enterovirus E): inactive
CC20 (A549): 61.5 µM
Activity (Human alphaherpesvirus 1 [4]): inactive
Activity (Human adenovirus 5 [5]): inactive

Nc1ccn(C[C@@H](CO)OCP(=O)(O)O)c(=O)n1.O.O [CIDOFOVIR]
Activity (Enterovirus E): inactive
CC20 (A549): 358.42 µM
Activity (Human alphaherpesvirus 1 [4]): inactive
Activity (Human adenovirus 5 [5]): inactive

C#CC1(NC(=O)c2ccccc2C(=O)OC[C@]23CC[C@@H](C(=C)C)[C@@H]2[C@H]2CC[C@@H]4[C@@]5(C)CC[C@H](O)C(C)(C)[C@@H]5CC[C@@]4(C)[C@]2(C)CC3)CCCCC1
Activity (Human alphaherpesvirus 1 [1]): inactive
Activity (Human adenovirus 5 [2]): inactive
Activity [3]: inactive
CC20 (MDCK): 1.57 µM
Activity (Enterovirus E): inactive
CC20 (A549): 109.82 µM
Activity (Human alphaherpesvirus 1 [4]): inactive
Activity (Human adenovirus 5 [5]): inactive

C=C(C)[C@@H]1CC[C@]2(COC(=O)c3cccc(C(=O)N4CCSCC4)c3)CC[C@]3(C)[C@H](CC[C@@H]4[C@@]5(C)CC[C@H](O)C(C)(C)[C@@H]5CC[C@]43C)C12 (single isomer, unassigned)
Activity (Human alphaherpesvirus 1 [1]): inactive
Activity (Human adenovirus 5 [2]): inactive
Activity [3]: inactive
CC20 (MDCK): 117.79 µM
Activity (Enterovirus E): inactive
CC20 (A549): 117.79 µM
Activity (Human alphaherpesvirus 1 [4]): inactive
Activity (Human adenovirus 5 [5]): inactive

C=C(C)[C@@H]1CC[C@]2(COC(=O)CCC(=O)O)CC[C@]3(C)[C@H](CC[C@@H]4[C@@]5(C)CCC(O)C(C)(C)[C@@H]5CC[C@]43C)[C@@H]12 (single isomer, unassigned)
Activity (Human alphaherpesvirus 1 [1]): inactive
Activity (Human adenovirus 5 [2]): inactive
Activity [3]: inactive
CC20 (MDCK): 11.51 µM
Activity (Enterovirus E): inactive
CC20 (A549): 11.51 µM
Activity (Human alphaherpesvirus 1 [4]): inactive
Activity (Human adenovirus 5 [5]): inactive

C#CC1(NC(=O)CCCC(=O)OC[C@]23CCC(C(=C)C)[C@@H]2[C@H]2CC[C@@H]4[C@@]5(C)CC[C@H](O)C(C)(C)[C@@H]5CC[C@@]4(C)[C@]2(C)CC3)CCCCC1 (single isomer, unassigned)
Activity (Human alphaherpesvirus 1 [1]): inactive
Activity (Human adenovirus 5 [2]): inactive
Activity [3]: inactive
CC20 (MDCK): 108.7 µM
Activity (Enterovirus E): inactive
CC20 (A549): 108.7 µM
Activity (Human alphaherpesvirus 1 [4]): inactive
Activity (Human adenovirus 5 [5]): inactive

C#CC1(NC(=O)CCC(=O)OC[C@]23CC[C@@H](C(=C)C)[C@@H]2[C@H]2CC[C@@H]4[C@@]5(C)CC[C@H](O)C(C)(C)[C@@H]5CC[C@@]4(C)[C@]2(C)CC3)CCCCC1
Activity (Human alphaherpesvirus 1 [1]): inactive
Activity (Human adenovirus 5 [2]): inactive
Activity [3]: inactive
CC20 (MDCK): 0.77 µM
Activity (Enterovirus E): inactive
CC20 (A549): 110.38 µM
Activity (Human alphaherpesvirus 1 [4]): inactive
Activity (Human adenovirus 5 [5]): inactive

C=C(C)[C@@H]1CC[C@]2(COC(=O)CCC(=O)N3CCOCC3)CC[C@]3(C)[C@H](CC[C@@H]4[C@@]5(C)CC[C@H](O)C(C)(C)[C@@H]5CC[C@]43C)[C@@H]12
Activity (Human alphaherpesvirus 1 [1]): inactive
Activity (Human adenovirus 5 [2]): inactive
Activity [3]: inactive
CC20 (MDCK): 4.78 µM
Activity (Enterovirus E): inactive
CC20 (A549): 9.63 µM
Activity (Human alphaherpesvirus 1 [4]): inactive
Activity (Human adenovirus 5 [5]): inactive
